# Read-outs that look alike come from different tables or passages of the source.
# Columns and labels:
# B. subtilis (ATCC 6633) = assay: Antibacterial ProTOX bioassay, B. subtilis; format: cell-based; settings: Bacillus subtilis, ATCC6633; B. subtilis ATCC 6633, 48 h, 28 °C; read-out: Minimum inhibitory concentration (MIC) B. subtilis
# Experimental: (§1) 12. Bioactivity screening.
# (§2) Purified metabolites were dissolved in DMSO to create stock solutions of 10,000 µg/mL. An aliquot from each stock solution was transferred to the first well of Rows B to G on a 96-well microtitre plate and then serially diluted two-fold with DMSO across the 12 wells of the plate to achieve a 2,048-fold concentration gradient. Bioassay medium was added to an aliquot of each diluted solution to achieve a 100-fold dilution in the final bioassay. This […]
# (§3) 0.1 µg/mL in 2% DMSO for yeasts. Row A served as a control with no test compound (indicating no inhibition), and Row H was left uninoculated (serving as a control for complete inhibition).
# (§4) B. subtilis (ATCC 6633), S. aureus (ATCC 25923) and MRSA (ATCC 33592) were used as indicator species for antibacterial activity, employing the ProTOX bioassay platform. A bacterial suspension (50 mL in a 250 mL flask) was prepared in nutrient media by cultivating it for 24 h at 250 rpm and 28 °C. The suspension was diluted to an absorbance of 0.01 absorbance units per mL, and 10 µL aliquots were added to the wells of a 96-well microtitre plate containing the test compounds dispersed in 190 µL of nutrient broth (Amyl) with 10 µL resazurin (12.5 µg/mL). The plates were incubated at 28 °C for 48 h, during which the positive control wells changed colour from blue to light pink. Tetracycline was employed as a control for B. subtilis, while ampicillin was used for S. aureus and MRSA. MIC endpoints were determined visually. Absorbance was measured using a Multiskan Skyhigh Microplate Spectrophotometer (Thermo Fisher Scientific) at 605 nm.
# S. aureus (ATCC 25923) = assay: Antibacterial ProTOX bioassay, S. aureus; format: cell-based; settings: Staphylococcus aureus, ATCC25923; S. aureus ATCC 25923, 48 h, 28 °C; read-out: Minimum inhibitory concentration (MIC) S. aureus
# Experimental: as §1, §2, §3, §4
# MRSA (ATCC 33592) = assay: Antibacterial ProTOX bioassay, MRSA; format: cell-based, methicillin-resistant S. aureus; settings: MRSA ATCC 33592, 48 h, 28 °C; for MIC: Staphylococcus aureus, read-out: Minimum inhibitory concentration (MIC) MRSA
# Experimental: as §1, §2, §3, §4
# [1] = tested on: Saccharomyces cerevisiae (ATCC 9763); assay: Antifungal EuTOX bioassay, S. cerevisiae; format: cell-based; settings: S. cerevisiae ATCC 9763, 48 h; for MIC: Saccharomyces cerevisiae, ATCC9763, read-out: Minimum inhibitory concentration (MIC) S. cerevisiae
# Experimental: as §1, §2
# (§5) 0.1 µg/mL in 2% DMSO for yeasts. Row A served as a control with no test compound (indicating no inhibition), and Row H was left uninoculated (serving as a control for complete inhibition). […]
# (§6) MIC endpoints were determined visually. Absorbance was measured using a Multiskan Skyhigh […]
# Saccharomyces cerevisiae (ATCC 9763) was used as indicator species for antifungal activity, employing the EuTOX bioassay platform. A yeast suspension (50 mL in a 250 mL flask) was prepared in 1% malt extract broth by cultivating it for 24 h at 250 rpm and 24 °C. The suspension was diluted to absorbances of 0.03 absorbance units per mL and 30 µL were added to the wells of a 96-well microtitre plate containing the test compounds dispersed in 100 µL of malt extract agar with bromocresol green (50 µg/mL). The plates were incubated at 28 °C for 48 h, during which the positive control wells changed colour from blue to yellow. Blasticidin S HCl was used
# [2] = tested on: NS-1 (ATCC TIB-18) mouse myeloma cells; assay: Cytotoxicity resazurin assay, NS-1 cells; format: cell-based; settings: for IC50: read-out: IC50 NS-1; for cytotoxicity against NS-1 cells (in words): mouse myeloma NS-1
# Experimental: as §1, §2, §5, §6, §6
# (§7) NS-1 (ATCC TIB-18) mouse myeloma and NFF (ATCC PCS -201) human neonatal foreskin fibroblast cells were each inoculated in 96-well microtitre plates (190 µL) at 50,000 cells/mL in DMEM (Dulbecco's Modified Eagle Medium + 10% fetal bovine serum (FBS) + 1% penicillin/streptomycin (10,000 U/mL / 10,000 µg/mL, Life Technologies Cat. No. 15140122), together with resazurin (250 µg/mL; 10 µL) and incubated in 37 °C (5% CO2) incubator. The plates were incubated for 96 h during which time the positive control wells change colour from a blue to pink colour. The absorbance of each well was measured using Multiskan Skyhigh Microplate Spectrophotometer (Thermofisher Scientific) at 605 nm. Sparsomycin was used as a control. The IC50 values were determined using a sigmoidal dose-response model with variable slope in GraphPad Prism 8.
# [3] = tested on: NFF (ATCC PCS-201) human neonatal foreskin fibroblast cells; assay: Cytotoxicity resazurin assay, NFF cells; format: cell-based; settings: for IC50: Homo sapiens, 96 h, read-out: IC50 NFF
# Experimental: as §1, §2, §5, §6, §6, §7
# [4] = tested on: Saccharomyces cerevisiae (ATCC 9763); settings: previously reported; cited from earlier work
# [5] = NS1, mouse myeloma NS-1 ATCC TIB-18, 96 h
# [6] = neonatal foreskin fibroblast NFF
Molecule,MIC (B. subtilis (ATCC 6633)),MIC (S. aureus (ATCC 25923)),MIC (MRSA (ATCC 33592)),MIC [1],"IC50 [2, 5]","IC50 [3, 6]",antifungal activity against S. cerevisiae (in words) [4],Minimum inhibitory concentration (MIC) S. cerevisiae [1],cytotoxicity against NS-1 cells (in words) [2],cytotoxicity against NFF cells (in words) [3],Minimum inhibitory concentration (MIC) MRSA (MRSA (ATCC 33592)),"IC50 ([2]; Mus musculus, NS1, 96 h)",IC50 ([3]; Fibroblast)
"CCCCCC/C=C\CCCCCCCc1cc(O[C@@H]2O[C@H](CO)[C@H](O)[C@H](O)[C@H]2O)cc(O)c1C(=O)Oc1cc(C)c(C(=O)O)c(O)c1 [4a, Capricostatin A]",1.6 µg/mL,3.1 µg/mL,6.3 µg/mL,> 200 µg/mL,> 100 µg/mL,> 100 µg/mL,–,–,–,–,–,–,–
geministatin D,–,–,–,–,–,–,displayed antifungal activity,–,–,–,–,–,–
"CCCCCCCCCCCCCCCc1cc(O)cc(O)c1 [compound 6, adipostatin]",> 100 µg/mL,> 100 µg/mL,25 µg/mL,> 200 µg/mL,6.3 µg/mL,6.3 µg/mL,–,–,–,–,–,–,–
"CN(CC[C@H](N)CC(=O)N[C@@H]1C=C[C@@H](n2ccc(N)nc2=O)O[C@H]1C(=O)O)C(=N)N.Cl [blasticidin S HCl, reference compound]",–,–,–,–,–,–,–,3.1 µg/mL,–,–,–,–,–
"CCCCCC/C=C\CCCCCCCc1cc(O)cc(O)c1C(=O)O [4f, Capricostatin F]",0.8 µg/mL,6.3 µg/mL,6.3 µg/mL,> 200 µg/mL,0.05 µg/mL,> 100 µg/mL,–,–,–,–,–,–,–
"CCCCCCCCCCCCCCCc1cc(O)cc(O)c1C(=O)O [1f, corticiolic acid]",0.8 µg/mL,3.1 µg/mL,3.1 µg/mL,> 200 µg/mL,25 µg/mL,> 100 µg/mL,–,–,–,–,–,–,–
"CCCCCCCCCCCCCc1cc(O[C@@H]2O[C@H](CO)[C@H](O)[C@H](O)[C@H]2O)cc(O)c1C(=O)Oc1cc(C)c(C(=O)O)c(O)c1 [3a, Ariestatin A]",1.6 µg/mL,3.1 µg/mL,6.3 µg/mL,> 200 µg/mL,> 100 µg/mL,> 100 µg/mL,–,–,–,–,–,–,–
"CCCCCCCCCCCCCc1cc(O)cc(O)c1C(=O)Oc1cc(C)c(C(=O)O)c(O)c1 [3b, Ariestatin B]",1.6 µg/mL,12.5 µg/mL,12.5 µg/mL,> 200 µg/mL,> 50 µg/mL,> 50 µg/mL,–,–,–,–,–,–,–
"Cc1cc(O)cc(O)c1C(=O)O [compound 5, orsellinic acid]",> 100 µg/mL,> 100 µg/mL,> 100 µg/mL,> 200 µg/mL,> 100 µg/mL,> 100 µg/mL,–,–,–,–,–,–,–
"CCCCCC/C=C\CCCCCCCc1cc(O[C@@H]2O[C@H](CO)[C@H](O)[C@H](O)[C@H]2O)cc(O)c1C(=O)OC [4c, capricostatin C]",> 100 µg/mL,> 100 µg/mL,> 100 µg/mL,> 200 µg/mL,6.3 µg/mL,6.3 µg/mL,–,–,–,–,–,–,–
"CCCCCCCCCCCCCCCc1cc(O[C@@H]2O[C@H](CO)[C@H](O)[C@H](O)[C@H]2O)cc(O)c1C(=O)O [1d, Aquastatin D]",3.1 µg/mL,12.5 µg/mL,6.3 µg/mL,3.1 µg/mL,> 50 µg/mL,> 100 µg/mL,–,–,did not exhibit cytotoxicity,did not exhibit cytotoxicity,–,–,–
"CN(C)[C@@H]1C(O)=C(C(N)=O)C(=O)[C@@]2(O)C(O)=C3C(=O)c4c(O)cccc4[C@@](C)(O)[C@H]3C[C@@H]12 [tetracycline, reference compound]",6.3 µg/mL,–,–,–,–,–,–,–,–,–,–,–,–
"CCCCCCCCCCCCCCCc1cc(O)cc(O)c1C(=O)OC [1e, aquastatin E]",> 100 µg/mL,> 100 µg/mL,> 100 µg/mL,> 200 µg/mL,> 100 µg/mL,> 100 µg/mL,–,–,–,–,–,–,–
"CC1(C)S[C@@H]2[C@H](NC(=O)[C@H](N)c3ccccc3)C(=O)N2[C@H]1C(=O)O [ampicillin, reference compound]",–,3.1 µg/mL,> 100 µg/mL,–,–,–,–,–,–,–,>100 µg/mL,–,–
"CCCCCCCCCCCCCc1cc(O[C@@H]2O[C@H](CO)[C@H](O)[C@H](O)[C@H]2O)cc(O)c1C(=O)O [3d, Ariestatin D]",25 µg/mL,> 50 µg/mL,> 50 µg/mL,3.1 µg/mL,> 50 µg/mL,> 50 µg/mL,–,–,did not exhibit cytotoxicity,did not exhibit cytotoxicity,–,–,–
"CCCCCC/C=C\CCCCCCCc1cc(O[C@@H]2O[C@H](CO)[C@H](O)[C@H](O)[C@H]2O)cc(O)c1C(=O)O [4d, Capricostatin D]",25 µg/mL,> 50 µg/mL,> 50 µg/mL,3.1 µg/mL,> 50 µg/mL,> 100 µg/mL,–,–,did not exhibit cytotoxicity,did not exhibit cytotoxicity,–,–,–
"CCCCCC/C=C\CCCCCCCc1cc(O)cc(O)c1C(=O)Oc1cc(C)c(C(=O)O)c(O)c1 [4b, Capricostatin B]",1.6 µg/mL,12.5 µg/mL,12.5 µg/mL,> 200 µg/mL,0.05 µg/mL,> 100 µg/mL,–,–,–,–,–,–,–
"CCCCCCCCCCCCCc1cc(O[C@@H]2O[C@H](CO)[C@H](O)[C@H](O)[C@H]2O)cc(O)c1C(=O)OC [3c, Ariestatin C]",> 100 µg/mL,> 100 µg/mL,> 100 µg/mL,> 200 µg/mL,0.2 µg/mL,> 100 µg/mL,–,–,cytotoxicity was observed,no activity was detected,–,–,–
"CSC[S@+]([O-])C[C@H](CO)NC(=O)/C=C/c1c(C)[nH]c(=O)[nH]c1=O [sparsomycin, reference compound]",–,–,–,–,–,–,–,–,–,–,–,1.7 µg/mL,1.7 µg/mL
